Measurements: US20160304461A1, “QUINOLONE COMPOUND AND PHARMACEUTICAL COMPOSITION” (OTSUKA PHARMACEUTICAL CO., LTD., priority 2007, published 2016)

Compared with `COc1ccc(-c2c[nH]c3c(OCCCNC(C)=O)ccc(F)c3c2=O)cc1` [Example 26, N-{3-[5-Fluoro-3-(4-methoxyphenyl)-4-oxo-1,4-dihydroquinolin-8-yloxy]propyl}acetamide], `COc1ccc(-c2c[nH]c3c(OCCCNS(C)(=O)=O)ccc(F)c3c2=O)cc1` [Example 27, N-{3-[5-Fluoro-3-(4-methoxyphenyl)-4-oxo-1,4-dihydroquinolin-8-yloxy]propyl}methanesulfonamide] is lower in melting point: 229 to 231 °C for the first, 120 to 121 °C for the second.

Compared with `COc1ccc(-c2c[nH]c3c(N(C)CC(C)C)ccc(F)c3c2=O)cc1` [Example 28, 5-Fluoro-8-(N-isobutyl-N-methylamino)-3-(4-methoxyphenyl)-1H-quinolin-4-one], `COc1ccc(-c2c[nH]c3c(N(C)C(C)C)ccc(F)c3c2=O)cc1` [Example 29, 5-Fluoro-8-(N-isopropyl-N-methylamino)-3-(4-methoxyphenyl)-1H-quinolin-4-one] is higher in melting point: 144 to 145 °C for the first, 267 to 269 °C for the second.

Compared with `CCCOc1ccc(F)c2c(=O)c(-c3ccc(OCC)cc3)c[nH]c12` [Example 33, 3-(4-Ethoxyphenyl)-5-fluoro-8-propoxy-1H-quinolin-4-one], `CCCOc1ccc(F)c2c(=O)c(-c3ccc(O)cc3)c[nH]c12` [Example 95, 5-Fluoro-3-(4-hydroxyphenyl)-8-propoxy-1H-quinolin-4-one] is higher in melting point: 203 to 205 °C for the first, 271 to 272 °C for the second.

Compared with `COc1ccc(-c2c[nH]c3c(OCC4CCCO4)ccc(F)c3c2=O)cc1` (centres unmarked) [Example 39, 5-Fluoro-3-(4-methoxyphenyl)-8-(tetrahydrofuran-2-ylmethoxy)-1H-quinolin-4-one], `COc1ccc(-c2c[nH]c3c(OCC4CCC4)ccc(F)c3c2=O)cc1` [Example 41, 8-Cyclobutylmethoxy-5-fluoro-3-(4-methoxyphenyl)-1H-quinolin-4-one] is higher in melting point: 108 to 110 °C for the first, 193 to 194 °C for the second.

First: COc1ccc(-c2c[nH]c3c(OC(C)(C)C)ccc(F)c3c2=O)cc1 [Example 42, 8-tert-Butoxy-5-fluoro-3-(4-methoxyphenyl)-1H-quinolin-4-one]
Second: COc1ccc(-c2c[nH]c3c(OCC(C)O)ccc(F)c3c2=O)cc1 (centres unmarked) [Example 102, 5-Fluoro-8-(2-hydroxypropoxy)-3-(4-methoxyphenyl)-1H-quinolin-4-one]
The melting point of the first is lower: 206 to 208 °C for the first, 216 to 218 °C for the second.

First: CCCOc1ccc(F)c2c(=O)c(-c3ccc(OC)cc3)c(CC)[nH]c12 [Example 48, 2-Ethyl-5-fluoro-3-(4-methoxyphenyl)-8-propoxy-1H-quinolin-4-one]
Second: CCCOc1ccc(F)c2c(=O)c(-c3ccc(OC)cc3)c(C)[nH]c12 [Example 67, 5-Fluoro-3-(4-methoxyphenyl)-2-methyl-8-propoxy-1H-quinolin-4-one]
The melting point of the first is lower: 169 to 171 °C for the first, 211 to 212 °C for the second.

First: CCCOc1ccc(F)c2c(=O)c(-c3cccnc3)c[nH]c12 [Example 49, 5-Fluoro-8-propoxy-3-pyridin-3-yl-1H-quinolin-4-one]
Second: CCCOc1ccc(F)c2c(=O)c(-c3ccncc3)c[nH]c12 [Example 51, 5-Fluoro-8-propoxy-3-pyridin-4-yl-1H-quinolin-4-one]
The melting point of the first is lower: 234 to 236 °C for the first, 259 to 261 °C for the second.

First: CCCOc1ccc(F)c2c(=O)c(-c3ccc(OCC)c(F)c3)c[nH]c12 [Example 50, 3-(4-Ethoxy-3-fluorophenyl)-5-fluoro-8-propoxy-1H-quinolin-4-one]
Second: CCCOc1ccc(F)c2c(=O)c(-c3ccc(O)cc3OC)c[nH]c12 [Example 97, 5-Fluoro-3-(4-hydroxy-2-methoxyphenyl)-8-propoxy-1H-quinolin-4-one]
The melting point of the first is lower: 176 to 177 °C for the first, 251 to 253 °C for the second.

First: CCCOc1ccc(F)c2c(=O)c(-c3ccc(Oc4ccccc4)cc3)c[nH]c12 [Example 52, 5-Fluoro-3-(4-phenoxyphenyl)-8-propoxy-1H-quinolin-4-one]
Second: CCCOc1ccc(F)c2c(=O)c(-c3ccc(C(C)=O)cc3)c[nH]c12 [Example 54, 3-(4-Acetylphenyl)-5-fluoro-8-propoxy-1H-quinolin-4-one]
The melting point of the first is higher: 228 to 230 °C for the first, 180 to 181 °C for the second.

First: CCCOc1ccc(F)c2c(=O)c(-c3ccc(C(=O)OC)cc3)c[nH]c12 [Example 55, Methyl 4-(5-fluoro-4-oxo-8-propoxy-1,4-dihydroquinolin-3-yl)benzoate]
Second: CCCOc1ccc(F)c2c(=O)c(-c3ccc(C(=O)N(C)C)cc3)c[nH]c12 [Example 57, 4-(5-Fluoro-4-oxo-8-propoxy-1,4-dihydroquinolin-3-yl)-N,N-dimethylbenzamide]
The melting point of the first is lower: 201 to 202 °C for the first, 235 to 237 °C for the second.

First: CCCOc1ccc(F)c2c(=O)c(-c3ccc(C(=O)N4CCCC4)cc3)c[nH]c12 [Example 56, 5-Fluoro-8-propoxy-3-[4-(pyrrolidine-1-carbonyl)phenyl]-1H-quinolin-4-one]
Second: CCCOc1ccc(F)c2c(=O)c(-c3ccc(C(=O)N4CCOCC4)cc3)c[nH]c12 [Example 90, 5-Fluoro-3-[4-(morpholine-4-carbonyl)phenyl]-8-propoxy-1H-quinolin-4-one]
The melting point of the first is higher: 236 to 237 °C for the first, 234 to 236 °C for the second.

Compared with `CCCOc1ccc(F)c2c(=O)c(-c3ccco3)c[nH]c12` [Example 58, 5-Fluoro-3-furan-2-yl-8-propoxy-1H-quinolin-4-one], `CCCOc1ccc(F)c2c(=O)c(-c3ccco3)c(C)[nH]c12` [Example 76, 5-Fluoro-3-furan-2-yl-2-methyl-8-propoxy-1H-quinolin-4-one] is lower in melting point: 210 to 212 °C for the first, 203 to 204 °C for the second.

First: CCCOc1ccc(F)c2c(=O)c(-c3ccsc3C=O)c[nH]c12 [Example 60, 3-(5-Fluoro-4-oxo-8-propoxy-1,4-dihydroquinolin-3-yl)thiophene-2-carbaldehyde]
Second: CCCOc1ccc(F)c2c(=O)c(-c3ccc(OC)cc3O)c[nH]c12 [Example 98, 5-Fluoro-3-(2-hydroxy-4-methoxyphenyl)-8-propoxy-1H-quinolin-4-one]
The melting point of the first is lower: 190 to 191 °C for the first, 208 to 209 °C for the second.

First: CCCOc1ccc(F)c2c(=O)c(-c3cc(OC)ccc3OC)c[nH]c12 [Example 65, 3-(2,5-Dimethoxyphenyl)-5-fluoro-8-propoxy-1H-quinolin-4-one]
Second: CCCOc1ccc(F)c2c(=O)c(-c3ccc(OC)cc3OC)c(C)[nH]c12 [Example 75, 3-(2,4-Dimethoxyphenyl)-5-fluoro-2-methyl-8-propoxy-1H-quinolin-4-one]
The melting point of the first is higher: 156 to 157 °C for the first, 100 to 101 °C for the second.

First: CCCOc1ccc(F)c2c(=O)c(-c3cccnc3)c(C)[nH]c12 [Example 68, 5-Fluoro-2-methyl-8-propoxy-3-pyridin-3-yl-1H-quinolin-4-one]
Second: CCCOc1ccc(F)c2c(=O)c(-c3ccncc3)c(C)[nH]c12 [Example 69, 5-Fluoro-2-methyl-8-propoxy-3-pyridin-4-yl-1H-quinolin-4-one]
The melting point of the first is lower: 190 to 192 °C for the first, 265 to 266 °C for the second.

Compared with `CCCOc1ccc(F)c2c(=O)c(-c3cccs3)c(C)[nH]c12` [Example 72, 5-Fluoro-2-methyl-8-propoxy-3-thiophen-2-yl-1H-quinolin-4-one], `CCCOc1ccc(F)c2c(=O)c(-c3cccs3)c(C(F)(F)F)[nH]c12` [Example 85, 5-Fluoro-8-propoxy-3-thiophen-2-yl-2-trifluoromethyl-1H-quinolin-4-one] is lower in melting point: 233 to 234 °C for the first, 149 to 150 °C for the second.

First: CCCOc1ccc(F)c2c(=O)c(-c3ccc(N(C)C)cc3)c(C)[nH]c12 [Example 73, 3-(4-Dimethylaminophenyl)-5-fluoro-2-methyl-8-propoxy-1H-quinolin-4-one]
Second: CCCOc1ccc(F)c2c(=O)c(-c3ccc(F)cc3)c(C)[nH]c12 [Example 74, 5-Fluoro-3-(4-fluorophenyl)-2-methyl-8-propoxy-1H-quinolin-4-one]
The melting point of the first is higher: 255 to 257 °C for the first, 196 to 197 °C for the second.

First: CCCOc1ccc(F)c2c(=O)c(-c3ccc(OC)cc3)c(C(F)(F)F)[nH]c12 [Example 77, 5-Fluoro-3-(4-methoxyphenyl)-8-propoxy-2-trifluoromethyl-1H-quinolin-4-one]
Second: CCCOc1ccc(F)c2c(=O)c(-c3ccc(F)cc3)c(C(F)(F)F)[nH]c12 [Example 81, 5-Fluoro-3-(4-fluorophenyl)-8-propoxy-2-trifluoromethyl-1H-quinolin-4-one]
The melting point of the first is higher: 170 to 171 °C for the first, 154 to 155 °C for the second.

First: CCCOc1ccc(F)c2c(=O)c(-c3ccco3)c(C(F)(F)F)[nH]c12 [Example 78, 5-Fluoro-3-furan-2-yl-8-propoxy-2-trifluoromethyl-1H-quinolin-4-one]
Second: CCCOc1ccc(F)c2c(=O)c(-c3ccco3)c(C(C)C)[nH]c12 [Example 84, 5-Fluoro-3-furan-2-yl-2-isopropyl-8-propoxy-1H-quinolin-4-one]
The melting point of the first is higher: 134 to 136 °C for the first, 113 to 114 °C for the second.

First: CCCOc1ccc(F)c2c(=O)c(-c3ccc(N(C)C)cc3)c(C(F)(F)F)[nH]c12 [Example 79, 3-(4-Dimethylaminophenyl)-5-fluoro-8-propoxy-2-trifluoromethyl-1H-quinolin-4-one]
Second: CCCOc1ccc(F)c2c(=O)c(-c3ccc(CC)cc3)c(C(F)(F)F)[nH]c12 [Example 80, 3-(4-Ethylphenyl)-5-fluoro-8-propoxy-2-trifluoromethyl-1H-quinolin-4-one]
The melting point of the first is lower: 176 to 177 °C for the first, 187 to 188 °C for the second.

First: CCCOc1ccc(F)c2c(=O)c(-c3ccc(OC(F)(F)F)cc3)c(C(F)(F)F)[nH]c12 [Example 82, 5-Fluoro-8-propoxy-3-(4-trifluoromethoxyphenyl)-2-trifluoromethyl-1H-quinolin-4-one]
Second: CCCOc1ccc(F)c2c(=O)c(-c3ccc(OC)cc3)c(C(C)C)[nH]c12 [Example 83, 5-Fluoro-2-isopropyl-3-(4-methoxyphenyl)-8-propoxy-1H-quinolin-4-one]
The melting point of the first is lower: 143 to 144 °C for the first, 195 to 197 °C for the second.

For `COc1ccc(-c2c[nH]c3c(-c4cc5ccccc5s4)ccc(F)c3c2=O)cc1` [Example 88, 8-Benzo[b]thiophen-2-yl-5-fluoro-3-(4-methoxyphenyl)-1H-quinolin-4-one], the melting point was 276 to 277 °C.

For `O=c1c(-c2ccc(O)cc2)c[nH]c2c(O)ccc(F)c12` [Example 96, 5-Fluoro-8-hydroxy-3-(4-hydroxyphenyl)-1H-quinolin-4-one], the melting point was 303 to 305 °C (dec.).
